Measurements: article PMC6368337, “GluClR-mediated inhibitory postsynaptic currents reveal targets for ivermectin and potential mechanisms of ivermectin resistance” (PLoS Pathogens, 2019)

Experiments:
Lipophilicity (logP) = type: physicochemical
α and αβ (1:1) GluClRs = assay: IVM-induced tonic current in heteroculture, α and αβ data pooled; type: cell-based, H. contortus; details: continuous 5 nM IVM
Method: After validating the heterocultures as a reliable preparation for investigating IPSCs mediated by GluClRs, we made synaptic recordings while continuously applying IVM (5 nM) to cells similarly transfected with α and αβ GluClRs. […] Firstly, there was a steady downward deflection in baseline current over the course of the recording that was not different between cells expressing α (Fig 5A) and αβ (1:1, Fig 5B) GluClRs. […] Changes to the kinetic properties of IPSCs were also observed upon IVM application (Fig 5C–5G). These were analysed 15 minutes after the commencement of the IVM application to ensure that the effects had equilibrated. […] The decay time constant for α GluClRs slowed from 40 ± 2 ms to 100 ± 3 ms (n = 6) and for αβ GluClRs from 17 ± 2 ms to 72 ± 4 ms (n = 6, Fig 5E). The increase in activation times were from 4.6 ± 0.7 ms to 19 ± 1 ms for α GluClRs and from 3.0 ± 0.3 ms to 10 ± 1 ms for the αβ heteromers (Fig 5F). […] A comparison of the magnitude changes of IPSC parameters was also made between the two receptor isoforms.
cDNAs encoding the α (avr-14b) (pcDNA 3.1+) or β (pUNIV) GluClR subunits of H. contortus were nuclear injected into oocytes (NASCO, WI USA) or transfected into HEK293AD cells (CellBank Australia) using a calcium phosphate-DNA co-precipitate method. […]

α (avr-14b) GluClRs = α (avr-14b) GluClRs (Haemonchus contortus, UniProt O46124); assay: Two-electrode voltage clamp in oocytes, α GluClRs; type: cell-based, H. contortus
Chain of α (avr-14b) GluClRs (O46124 entry or part of it): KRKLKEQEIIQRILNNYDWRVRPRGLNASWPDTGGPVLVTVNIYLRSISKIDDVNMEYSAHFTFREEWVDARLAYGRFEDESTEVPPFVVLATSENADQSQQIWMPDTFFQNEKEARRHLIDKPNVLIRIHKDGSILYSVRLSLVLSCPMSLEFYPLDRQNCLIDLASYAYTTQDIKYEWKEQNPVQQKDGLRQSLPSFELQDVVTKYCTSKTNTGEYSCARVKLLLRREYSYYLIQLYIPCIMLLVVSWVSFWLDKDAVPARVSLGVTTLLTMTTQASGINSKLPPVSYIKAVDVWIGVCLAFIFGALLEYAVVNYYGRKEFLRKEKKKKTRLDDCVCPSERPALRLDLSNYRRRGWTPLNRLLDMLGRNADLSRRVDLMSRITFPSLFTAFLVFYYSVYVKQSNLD
Method: (§1) cDNAs encoding the α (avr-14b) (pcDNA 3.1+) or β (pUNIV) GluClR subunits of H. contortus were nuclear injected into oocytes (NASCO, WI USA) or transfected into HEK293AD cells (CellBank Australia) using a calcium phosphate-DNA co-precipitate method. Synapse formation between neurons and HEK293 cells was promoted by co-transfecting neuroligin 2A or 1B and the cDNA encoding CD4 surface antigen was also added to the transfection mixture so as to identify transfected cells. The oocytes and HEK cells were used for experiments 2–3 days after the introduction of the cDNAs. All experiments were done at room temperature (22 ± 1°C).
(§2) Xenopus laevis oocytes were harvested by surgical incision. The oocytes were then defolliculated with 1.5 mg/ml collagenase for 2 hours. Free oocytes were rinsed with calcium-free OR-2 solution containing (in mM) 82.5 NaCl, 2 KCl, 1 MgCl2, 5 HEPES, pH 7.4 and mature stage V or VI oocytes were isolated for experiments. The DNAs coding for α and β subunits were nuclear injected into the oocytes using a Nanoliter 2000 microinjector (WPI Inc) at a ratio of (α:β), 1:0, 0:1, 1:1 and 1:50. The total amount of injected DNA in all combinations was 400 ng ml^−1, including the 1:50 (α:β) combination (8 ng of DNA encoding the α and 392 ng of DNA encoding β subunits). Injected oocytes were incubated in ND96 storage solution (in mM) 96 NaCl, 2 KCl, 1 MgCl2.6H2O, 1.8 CaCl2, 5 HEPES, 50 μg ml^−1 gentamicin, 2.5 sodium pyruvate, 0.5 theophylline, pH 7.4 at 16°C for 2–3 days before experiment.
(§3) For the two-electrode voltage clamp recordings, each oocyte was secured in a cell bath that was continually perfused with ND96 recording solution (ND96 storage solution without pyruvate, theophylline and gentamicin). […] The two microelectrodes contained 3 M KCl and had resistances of 0.2–2 MΩ. Recordings were done using Clampex 10.2 software (Molecular Devices) at a clamped voltage of −40 mV. Currents were low-pass filtered at 200 Hz, sampled at 2 kHz using a Gene Clamp 500B amplifier and digitised by a Digidata 1440A interface. The IVM (IVM B1a) concentration-response experiments were standardised by using an application protocol that consisted of applying increasing concentrations of IVM for, respectively, 3 min, 3 min, 3 min, 2 min, 1 min, 1 min and 0.5 min.
(§4) Group data were analysed in SigmaPlot 13.0 using one-way ANOVAs, where p < 0.05 was taken as the significance threshold and expressed as mean ± SEM. Tests for normally distributed data are built into the SigmaPlot software. Confocal images were captured and analysed with Zen 2012 SP2 (Zeiss) software. Oocyte concentration-response data were fit to a Hill equation to obtain an EC50 and Hill co-efficient for each oocyte recording. These parameters were then averaged across multiple oocyte experiments of the same type. Single channel recordings were analysed in QuB software. […] The selected critical times eliminated periods of receptor desensitisation while retaining singe receptor active periods. Mean active period duration and intra-activation open probability was estimated from each patch. Group means were obtained by averaging across multiple patches for each recording condition.

α GluClRs = assay: IPSC recording in HEK293-neuron heteroculture, α GluClRs; type: cell-based, H. contortus; details: 5 nM IVM
Method: as §1
(§5) Primary neuronal cultures were prepared from cortices of E18 rat embryos, (University of Queensland Biological Services), which were triturated and plated at 100,000 cells per 18-mm poly-D-lysine-coated coverslip in DMEM with 10% fetal bovine serum. After 24 h the entire medium was replaced with Neurobasal medium that included 2% B27 and 1% GlutaMAX supplements. After one week half of this medium was replaced and the neurons were allowed to grow in vitro for 3–5 weeks before introducing the transfected HEK293 cells. Recordings of synaptic currents were done in whole-cell configuration at ‐70 mV using an Axopatch 200B amplifier (Molecular Devices), filtered at 5 kHz and digitized at 20 kHz using Clampex (pClamp 10 suite, Molecular Devices) via a Digidata 1440A digitizer.

αβ (1:50) GluClRs = αβ (1:50) GluClRs (Haemonchus contortus, UniProt O46124+P91730); assay: Two-electrode voltage clamp in oocytes, αβ (1:50) GluClRs; type: cell-based, H. contortus
Chain of αβ (1:50) GluClRs (O46124 entry or part of it): as above
Chain of αβ (1:50) GluClRs (P91730 19-432): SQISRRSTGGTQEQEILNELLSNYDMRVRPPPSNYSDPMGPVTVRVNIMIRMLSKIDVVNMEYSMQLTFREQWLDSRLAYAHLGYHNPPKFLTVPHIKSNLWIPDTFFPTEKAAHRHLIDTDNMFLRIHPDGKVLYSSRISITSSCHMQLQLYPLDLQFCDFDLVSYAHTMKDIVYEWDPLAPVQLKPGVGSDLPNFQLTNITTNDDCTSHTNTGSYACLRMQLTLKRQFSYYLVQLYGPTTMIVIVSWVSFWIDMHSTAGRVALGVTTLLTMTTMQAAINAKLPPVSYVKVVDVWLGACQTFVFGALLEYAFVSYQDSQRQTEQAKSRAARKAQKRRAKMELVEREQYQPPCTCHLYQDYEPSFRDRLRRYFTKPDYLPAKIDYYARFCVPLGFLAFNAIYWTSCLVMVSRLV
Method: as §1, §2, §3, §4

αβ (1:1) GluClRs [1] = target: T1, αβ (1:1) GluClRs (Haemonchus contortus, UniProt O46124+P91730); assay: IPSC recording in HEK293-neuron heteroculture, αβ (1:1) GluClRs; type: cell-based, H. contortus; details: 5 nM IVM
T1 sequence (P91730 19-432): as above
T1 sequence (O46124 entry or part of it): as the sequence (O46124 entry or part of it) above
Method: as §1, §5

αβ (1:1) GluClRs [2] = target: T1, αβ (1:1) GluClRs; assay: Two-electrode voltage clamp in oocytes, αβ (1:1) GluClRs; type: cell-based, H. contortus
Method: as §1, §2, §3
Group data were analysed in SigmaPlot 13.0 using one-way ANOVAs, where p < 0.05 was taken as the significance threshold and expressed as mean ± SEM. Tests for normally distributed data are built into the SigmaPlot software. Confocal images were captured and analysed with Zen 2012 SP2 (Zeiss) software. Oocyte concentration-response data were fit to a Hill equation to obtain an EC50 and Hill co-efficient for each oocyte recording. […] Single channel recordings were analysed in QuB software. […]

[3] = 15 minutes after start of application, −70 mV
[4] = read-out: maximal response, % of saturating glutamate response

CC[C@H](C)[C@H]1O[C@]2(CC[C@@H]1C)C[C@@H]1C[C@@H](C/C=C(\C)[C@@H](O[C@H]3C[C@H](OC)[C@@H](O[C@H]4C[C@H](OC)[C@@H](O)[C@H](C)O4)[C@H](C)O3)[C@@H](C)/C=C/C=C3\CO[C@@H]4[C@H](O)C(C)=C[C@@H](C(=O)O1)[C@]34O)O2 [IVM, Ivermectin]
logP (Lipophilicity (logP)): 5.4
tonic current fitted time constant (α and αβ (1:1) GluClRs): 483 ± 72 s
tonic current mean amplitude (α and αβ (1:1) GluClRs): 304 ± 54 pA
EC50 (α (avr-14b) GluClRs; EC50, oocytes, holding potential −40 mV): 22 ± 3 nM
Hill co-efficient (α (avr-14b) GluClRs; oocytes, −40 mV): 1.9 ± 0.1
Emax (α (avr-14b) GluClRs; read-out: maximal response, % of that seen with saturating glutamate): 59%
IPSC activation (10–90% rise) time (α GluClRs; 15 minutes): 19 ± 1 ms
peak IPSC amplitude (α GluClRs; 15 minutes): 122 ± 39 pA
IPSC decay time constant (α GluClRs; [3]): 100 ± 3 ms
differential efficacy between α and αβ (1:50) GluClRs (αβ (1:50) GluClRs; 30 nM, α versus αβ (1:50)): maintained
EC50 (αβ (1:50) GluClRs; EC50, oocytes, cDNA injection ratio α:β 1:50, −40 mV): 141 ± 11 nM
Hill co-efficient (αβ (1:50) GluClRs; oocytes, α:β 1:50, −40 mV): 1.6 ± 0.1
Emax (αβ (1:50) GluClRs; [4]): 33%
IPSC activation (10–90% rise) time (αβ (1:1) GluClRs [1]; 15 minutes): 10 ± 1 ms
peak IPSC amplitude (αβ (1:1) GluClRs [1]; 15 minutes): 124 ± 18 pA
IPSC decay time constant (αβ (1:1) GluClRs [1]; [3]): 72 ± 4 ms
EC50 (αβ (1:1) GluClRs [2]; EC50, oocytes, cDNA injection ratio α:β 1:1, −40 mV): 86 ± 14 nM
Hill co-efficient (αβ (1:1) GluClRs [2]; oocytes, α:β 1:1, −40 mV): 1.0 ± 0.1
Emax (αβ (1:1) GluClRs [2]; [4]): 26%
